The results in this text go back to patent publication US10144706B2 (BRISTOL-MYERS SQUIBB COMPANY, priority 2016, dated 2018).

The IC50 is the concentration at which inhibition is half-maximal.

Molecules are shown by their SMILES. Like-named read-outs stand apart in the source and are kept apart here.

The assay has as its target T1, PD-1/PD-L1 interaction (PD-1-Ig / PD-L1-His) (Homo sapiens, UniProt Q9NZQ7).
T1 construct: hPDL1(18-239)-TVMV-His; TVMV protease site linker (C); made in house; host or cells: HEK293T
As to the kind of experiment: PD-1/PD-L1 Homogenous Time-Resolved Fluorescence (HTRF) binding assay. The conditions noted are these: PD-L1-His 10 nM, PD-1-Ig 20 nM, read-out: Range or IC50. The method, boiled down: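 HTRF detection used 1 nM europium-cryptate anti-Ig and 20 nM APC anti-His. Compounds first saw 10 nM PD-L1-His for 15 min, and 20 nM PD-1-Ig was then added for another 15 min. Buffer was dPBS plus 0.1% BSA and 0.05% Tween-20. All concentrations are final.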

T1 sequence (Q9NZQ7 with tags, fused parts or gaps): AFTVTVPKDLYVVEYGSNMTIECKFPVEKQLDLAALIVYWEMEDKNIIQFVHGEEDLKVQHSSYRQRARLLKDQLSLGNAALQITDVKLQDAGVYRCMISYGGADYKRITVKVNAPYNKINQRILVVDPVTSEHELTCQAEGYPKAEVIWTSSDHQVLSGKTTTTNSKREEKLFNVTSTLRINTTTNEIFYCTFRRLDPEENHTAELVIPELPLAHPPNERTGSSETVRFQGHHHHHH

As for `Cc1c(COc2cc(OCc3cncc(C#N)c3)c(CO)cc2Cl)cccc1-c1cccc(COc2cc(OCc3cncc(C#N)c3)c(CN[C@@H](C(=O)O)[C@H](C)O)cc2Cl)c1C` [Example 50180], for the setting “IC50 range class”, the IC50 is 0.04 to 20 nM.
The same measure, in the same setting: the same measure for `Cc1c(COc2cc(OCc3cncc(C#N)c3)c(CO)cc2Cl)cccc1-c1cccc(COc2cc(OCc3cncc(C#N)c3)c(CN[C@@H](C(=O)O)[C@@H](C)O)cc2Cl)c1C` [Example 50190]: 0.04 to 20 nM; for `Cc1c(COc2cc(OCc3cncc(C#N)c3)c(CO)cc2Cl)cccc1-c1cccc(COc2cc(OCc3cncc(C#N)c3)c(CNC(C(=O)O)C(C)O)cc2Cl)c1C` (centres unmarked) [Example 50200]: 0.04 to 20 nM; for `Cc1c(COc2cc(OCc3cncc(C#N)c3)c(CO)cc2Cl)cccc1-c1cccc(COc2cc(OCc3cncc(C#N)c3)c(CN[C@H](CCO)C(=O)O)cc2Cl)c1C` [Example 50210]: 0.04 to 20 nM.
The same measure, in the same setting: as for `Cc1c(COc2cc(OCc3cncc(C#N)c3)c(CO)cc2Cl)cccc1-c1cccc(COc2cc(OCc3cncc(C#N)c3)c(CNC(C(=O)O)C(=O)O)cc2Cl)c1C` [Example 50220], the figure is 0.04 to 20 nM.
Still for that read-out and setting: the same measure for `Cc1c(COc2cc(OCc3cncc(C#N)c3)c(CO)cc2Cl)cccc1-c1cccc(COc2cc(OCc3cncc(C#N)c3)c(CN[C@H](C(=O)O)[C@H](C)O)cc2Cl)c1C` [Example 50230]: 0.04 to 20 nM.
With `Cc1c(COc2cc(OCc3cncc(C#N)c3)c(CO)cc2Cl)cccc1-c1cccc(COc2cc(OCc3cncc(C#N)c3)c(CN[C@H](CO)C(=O)O)cc2Cl)c1C` [Example 50240], under “IC50 range class”, the IC50 fell in the range of 0.04 to 20 nM.
Same read-out and setting: the same measure for `Cc1c(COc2cc(OCc3cncc(C#N)c3)c(CO)cc2Cl)cccc1-c1cccc(COc2cc(OCc3cncc(C#N)c3)c(CN[C@@H](C(=O)O)[C@H](C)O)cc2Cl)c1C` [Example 50250]: 0.04 to 20 nM.
With `Cc1c(COc2cc(OCc3cncc(C#N)c3)c(CO)cc2Cl)cccc1-c1cccc(COc2cc(OCc3cncc(C#N)c3)c(CNC(C(=O)O)C(=O)O)cc2Cl)c1C` [Example 50270], the IC50 (numeric IC50) was found to be 23 nM.
In the case of `Cc1c(COc2cc(OCc3cncc(C#N)c3)c(CO)cc2Cl)cccc1-c1cccc(COc2cc(OCc3cncc(C#N)c3)c(CNCC(O)C(=O)O)cc2Cl)c1C` (centres unmarked) [Example 50300], the IC50 (IC50 range class) lay in the range of 0.04 to 20 nM.
Regarding `Cc1c(COc2cc(OCc3cncc(C#N)c3)c(CO)cc2Cl)cccc1-c1cccc(COc2cc(OCc3cncc(C#N)c3)c(CN[C@@H](CO)CC(=O)O)cc2Cl)c1C` [Example 50310], the IC50 (IC50 range class) is 20.1 to 90 nM.
Same read-out and setting: as for `Cc1c(COc2cc(OCc3cncc(C#N)c3)c(CO)cc2Cl)cccc1-c1cccc(COc2cc(OCc3cncc(C#N)c3)c(CN[C@H](CO)CC(=O)O)cc2Cl)c1C` [Example 50330], the figure is 0.04 to 20 nM; as for `Cc1c(COc2cc(OCc3cncc(C#N)c3)c(CO)cc2Cl)cccc1-c1cccc(COc2cc(OCc3cncc(C#N)c3)c(CN[C@H](C(=O)O)[C@@H](C)[C@H](C)O)cc2Cl)c1C` [Example 50340], 0.04 to 20 nM.
On the same count and under the same terms, the same measure for `Cc1c(COc2cc(OCc3cncc(C#N)c3)c(CO)cc2Cl)cccc1-c1cccc(COc2cc(OCc3cncc(C#N)c3)c(CN[C@@H](CCO)C(=O)O)cc2Cl)c1C` [Example 50360]: 0.04 to 20 nM; for `CC(CO)(NCc1cc(Cl)c(OCc2cccc(-c3cccc(COc4cc(OCc5cncc(C#N)c5)c(CO)cc4Cl)c3Cl)c2Cl)cc1OCc1cncc(C#N)c1)C(=O)O` (centres unmarked) [Example 50380]: 0.04 to 20 nM.
With `C[C@](CO)(NCc1cc(Cl)c(OCc2cccc(-c3cccc(COc4cc(OCc5cncc(C#N)c5)c(CO)cc4Cl)c3Cl)c2Cl)cc1OCc1cncc(C#N)c1)C(=O)O` [Example 50400], the half-maximal inhibitory concentration (IC50) (IC50 range class) lay within 0.04 to 20 nM.
Still for that read-out and setting: as for `CC(=O)c1cc(Cl)c(OCc2cccc(-c3cccc(COc4cc(OCc5cncc(C#N)c5)c(CN[C@](C)(CO)C(=O)O)cc4Cl)c3C)c2C)cc1OCc1cncc(C#N)c1` [Example 60010], the figure is 0.04 to 20 nM.
Same read-out and setting: as for `CC(=O)c1cc(Cl)c(OCc2cccc(-c3cccc(COc4cc(OCc5cncc(C#N)c5)c(CN[C@H](C(=O)O)[C@@H](C)O)cc4Cl)c3C)c2C)cc1OCc1cncc(C#N)c1` [Example 60020], the figure is 0.04 to 20 nM.
As for `CC(=O)c1cc(Cl)c(OCc2cccc(-c3cccc(COc4cc(OCc5cncc(C#N)c5)c(CNC(C)(CO)C(=O)O)cc4Cl)c3C)c2C)cc1OCc1cncc(C#N)c1` (centres unmarked) [Example 60030], the IC50 (numeric IC50) is 6 nM.
With `CC(=O)c1cc(Cl)c(OCc2cccc(-c3cccc(COc4cc(OCc5cncc(C#N)c5)c(CN[C@](C)(CO)C(=O)O)cc4Cl)c3Cl)c2Cl)cc1OCc1cncc(C#N)c1` [Example 60040], under “IC50 range class”, the IC50 is 0.04 to 20 nM.
On the same count and under the same terms, as for `CC(=O)c1cc(Cl)c(OCc2cccc(-c3cccc(COc4cc(OCc5cncc(C#N)c5)c(CN[C@H](C(=O)O)[C@@H](C)[C@H](C)O)cc4Cl)c3C)c2C)cc1OCc1cncc(C#N)c1` [Example 60050], the figure is 0.04 to 20 nM; as for `CC(=O)c1cc(Cl)c(OCc2cccc(-c3cccc(COc4cc(OCc5cncc(C#N)c5)c(CNC(C)(CO)C(=O)O)cc4Cl)c3Cl)c2Cl)cc1OCc1cncc(C#N)c1` (centres unmarked) [Example 60060], 0.04 to 20 nM.
Same read-out and setting: the same measure for `CC(=O)c1cc(Cl)c(OCc2cccc(-c3cccc(COc4cc(OCc5cncc(C#N)c5)c(CN[C@@](C)(CO)C(=O)O)cc4Cl)c3C)c2C)cc1OCc1cncc(C#N)c1` [Example 60070]: 0.04 to 20 nM.
Same read-out and setting: as for `CC(=O)c1cc(Cl)c(OCc2cccc(-c3cccc(COc4cc(OCc5cncc(C#N)c5)c(CN[C@@](C)(CO)C(=O)O)cc4Cl)c3Cl)c2Cl)cc1OCc1cncc(C#N)c1` [Example 60080], the figure is 0.04 to 20 nM; as for `CC(=O)c1cc(Cl)c(OCc2cccc(-c3cccc(COc4cc(OCc5cncc(C#N)c5)c(CN[C@@H](C(=O)O)[C@H](C)O)cc4Cl)c3C)c2C)cc1OCc1cncc(C#N)c1` [Example 60090], 20.1 to 90 nM; as for `Cc1c(COc2cc(OCc3cncc(C#N)c3)c(Cl)cc2Cl)cccc1-c1cccc(COc2cc(OCc3cncc(C#N)c3)c(CN[C@H](C(=O)O)[C@@H](C)O)cc2Cl)c1C` [Example 70010], 90.1 to 1000 nM.
On to `Cc1c(COc2cc(OCc3cncc(C#N)c3)c(Cl)cc2Cl)cccc1-c1cccc(COc2cc(OCc3cncc(C#N)c3)c(CN[C@](C)(CO)C(=O)O)cc2Cl)c1C` [Example 70020], for which the IC50 (IC50 range class) is 0.04 to 20 nM.
Same read-out and setting: the same measure for `Cc1c(COc2cc(OCc3cncc(C#N)c3)c(Cl)cc2Cl)cccc1-c1cccc(COc2cc(OCc3cncc(C#N)c3)c(CNC(C)(CO)C(=O)O)cc2Cl)c1C` (centres unmarked) [Example 70030]: 20.1 to 90 nM.
Consider `Cc1c(COc2cc(OCc3cncc(C#N)c3)c(Cl)cc2Cl)cccc1-c1cccc(COc2cc(OCc3cncc(C#N)c3)c(CN[C@@H](C(=O)O)[C@H](C)O)cc2Cl)c1C` [Example 70040], for which, for the setting “numeric IC50”, the IC50 came out at 1050 nM.
`Cc1c(COc2cc(OCc3cncc(C#N)c3)c(Cl)cc2Cl)cccc1-c1cccc(COc2cc(OCc3cncc(C#N)c3)c(CN[C@H](C(=O)O)[C@@H](C)[C@H](C)O)cc2Cl)c1C` [Example 70050]: the IC50 (IC50 range class) lay in the range of 90.1 to 1000 nM.
Still for that read-out and setting: as for `Cc1c(COc2cc(OCc3cncc(C#N)c3)c(Cl)cc2Cl)cccc1-c1cccc(COc2cc(OCc3cncc(C#N)c3)c(CN[C@@](C)(CO)C(=O)O)cc2Cl)c1C` [Example 70060], the figure is 20.1 to 90 nM.
Still for that read-out and setting: as for `N#Cc1cncc(COc2cc(OCc3cccc(-c4cccc(COc5cc(OCc6cncc(C#N)c6)c(C(=O)N6CCC(=O)CC6)cc5Cl)c4Cl)c3Cl)c(Cl)cc2C(=O)N2CCC(=O)CC2)c1` [Example 80010], the figure is 20.1 to 90 nM.
